Measured values as given in patent US12492188B2, “1H-benzo[D]imidazole derivatives as TLR9 inhibitors for the treatment of fibrosis” (BRISTOL-MYERS SQUIBB COMPANY, priority 2020, dated 2025).
Where two headings read alike, the source gives them in different places.

Columns and labels:
Assay type in all cases: cell-based
human TLR9 = target: T1, human TLR9 (Homo sapiens, UniProt Q9NR96); assay: TLR9 inhibition reporter assay (HEK-Blue cells, secreted embryonic alkaline phosphatase reporter)
T1 construct: host or cells: HEK-Blue cells (HEK293-derived reporter line)
T1 sequence (Q9NR96 26-1032): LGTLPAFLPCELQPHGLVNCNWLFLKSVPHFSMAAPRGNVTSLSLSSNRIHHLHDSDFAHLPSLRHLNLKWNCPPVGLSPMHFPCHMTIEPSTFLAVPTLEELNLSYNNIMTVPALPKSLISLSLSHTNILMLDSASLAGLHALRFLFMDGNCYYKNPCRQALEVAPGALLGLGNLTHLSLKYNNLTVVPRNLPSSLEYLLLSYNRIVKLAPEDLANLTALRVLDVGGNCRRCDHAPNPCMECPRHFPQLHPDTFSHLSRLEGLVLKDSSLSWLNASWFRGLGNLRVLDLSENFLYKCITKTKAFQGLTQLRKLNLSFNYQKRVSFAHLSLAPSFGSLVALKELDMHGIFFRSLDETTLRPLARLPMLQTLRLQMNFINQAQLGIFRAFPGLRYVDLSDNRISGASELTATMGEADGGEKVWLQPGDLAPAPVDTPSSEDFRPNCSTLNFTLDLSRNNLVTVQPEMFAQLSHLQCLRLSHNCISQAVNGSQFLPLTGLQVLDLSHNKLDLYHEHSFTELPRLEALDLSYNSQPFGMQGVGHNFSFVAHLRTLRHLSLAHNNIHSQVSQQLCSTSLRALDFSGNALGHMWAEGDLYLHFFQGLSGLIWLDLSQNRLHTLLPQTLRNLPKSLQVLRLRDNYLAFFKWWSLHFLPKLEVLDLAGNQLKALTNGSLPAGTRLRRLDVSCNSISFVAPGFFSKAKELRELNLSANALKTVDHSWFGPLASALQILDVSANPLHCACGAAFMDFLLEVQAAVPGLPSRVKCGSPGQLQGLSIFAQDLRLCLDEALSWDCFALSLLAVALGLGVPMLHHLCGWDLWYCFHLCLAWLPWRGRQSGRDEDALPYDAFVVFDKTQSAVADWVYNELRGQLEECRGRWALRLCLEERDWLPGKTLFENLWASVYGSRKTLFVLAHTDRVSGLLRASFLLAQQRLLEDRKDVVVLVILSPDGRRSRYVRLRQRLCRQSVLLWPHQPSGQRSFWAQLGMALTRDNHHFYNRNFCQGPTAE
How it was run: (§1)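 Inhibitors are tested in dose response (0.05 nM–50 μM) on HEK-Blue reporter cells expressing human TLR7, TLR8 or TLR9. After 30 min at room temperature, each line is stimulated with its own agonist (gardiquimod 7.5 μM, R848 15.9 μM or ODN2006 5 nM, final) and SEAP is measured 22 h later.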

human TLR7 = target: T2, human TLR7 (Homo sapiens, UniProt Q9NYK1); assay: TLR7 inhibition reporter assay (HEK-Blue cells, secreted embryonic alkaline phosphatase reporter); conditions: HEK-Blue cells overexpressing human TLR7, stimulated with gardiquimod 7.5 μM; read-out: TLR 7 IC50
T2 construct: host or cells: HEK-Blue cells (HEK293-derived reporter line)
T2 sequence (Q9NYK1 27-1049): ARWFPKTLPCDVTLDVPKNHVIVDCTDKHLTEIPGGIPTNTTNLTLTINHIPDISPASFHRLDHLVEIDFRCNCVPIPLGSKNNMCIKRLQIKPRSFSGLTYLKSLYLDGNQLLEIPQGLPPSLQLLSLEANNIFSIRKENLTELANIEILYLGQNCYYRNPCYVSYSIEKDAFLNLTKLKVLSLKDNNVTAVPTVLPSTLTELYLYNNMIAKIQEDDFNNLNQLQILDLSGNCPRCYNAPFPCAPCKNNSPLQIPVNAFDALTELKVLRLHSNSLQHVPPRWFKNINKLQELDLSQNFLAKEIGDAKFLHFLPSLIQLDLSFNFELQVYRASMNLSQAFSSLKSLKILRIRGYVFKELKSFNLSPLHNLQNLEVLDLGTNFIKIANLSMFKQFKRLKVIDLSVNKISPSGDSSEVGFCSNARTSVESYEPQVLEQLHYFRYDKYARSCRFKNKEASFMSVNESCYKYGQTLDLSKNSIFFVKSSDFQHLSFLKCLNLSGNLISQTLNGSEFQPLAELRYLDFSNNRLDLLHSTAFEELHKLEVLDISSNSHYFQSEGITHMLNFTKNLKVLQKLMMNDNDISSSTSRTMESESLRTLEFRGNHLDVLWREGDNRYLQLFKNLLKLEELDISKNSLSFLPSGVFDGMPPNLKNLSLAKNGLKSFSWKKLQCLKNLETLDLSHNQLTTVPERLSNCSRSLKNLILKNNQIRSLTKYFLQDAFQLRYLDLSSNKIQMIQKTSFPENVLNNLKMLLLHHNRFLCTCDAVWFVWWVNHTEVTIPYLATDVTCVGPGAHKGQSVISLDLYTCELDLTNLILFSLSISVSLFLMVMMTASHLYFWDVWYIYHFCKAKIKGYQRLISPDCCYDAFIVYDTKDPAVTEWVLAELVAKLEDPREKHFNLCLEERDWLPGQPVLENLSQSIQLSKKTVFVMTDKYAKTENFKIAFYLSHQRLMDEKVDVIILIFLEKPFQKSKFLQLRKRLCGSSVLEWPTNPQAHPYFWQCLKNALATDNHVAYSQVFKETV
How it was run: as §1

human TLR8 = target: T3, human TLR8 (Homo sapiens, UniProt Q9NR97); assay: TLR8 inhibition reporter assay (HEK-Blue cells, secreted embryonic alkaline phosphatase reporter); conditions: HEK-Blue cells overexpressing human TLR8, stimulated with R848 15.9 μM; read-out: TLR 8 IC50
T3 construct: host or cells: HEK-Blue cells (HEK293-derived reporter line)
T3 sequence (Q9NR97 27-1041): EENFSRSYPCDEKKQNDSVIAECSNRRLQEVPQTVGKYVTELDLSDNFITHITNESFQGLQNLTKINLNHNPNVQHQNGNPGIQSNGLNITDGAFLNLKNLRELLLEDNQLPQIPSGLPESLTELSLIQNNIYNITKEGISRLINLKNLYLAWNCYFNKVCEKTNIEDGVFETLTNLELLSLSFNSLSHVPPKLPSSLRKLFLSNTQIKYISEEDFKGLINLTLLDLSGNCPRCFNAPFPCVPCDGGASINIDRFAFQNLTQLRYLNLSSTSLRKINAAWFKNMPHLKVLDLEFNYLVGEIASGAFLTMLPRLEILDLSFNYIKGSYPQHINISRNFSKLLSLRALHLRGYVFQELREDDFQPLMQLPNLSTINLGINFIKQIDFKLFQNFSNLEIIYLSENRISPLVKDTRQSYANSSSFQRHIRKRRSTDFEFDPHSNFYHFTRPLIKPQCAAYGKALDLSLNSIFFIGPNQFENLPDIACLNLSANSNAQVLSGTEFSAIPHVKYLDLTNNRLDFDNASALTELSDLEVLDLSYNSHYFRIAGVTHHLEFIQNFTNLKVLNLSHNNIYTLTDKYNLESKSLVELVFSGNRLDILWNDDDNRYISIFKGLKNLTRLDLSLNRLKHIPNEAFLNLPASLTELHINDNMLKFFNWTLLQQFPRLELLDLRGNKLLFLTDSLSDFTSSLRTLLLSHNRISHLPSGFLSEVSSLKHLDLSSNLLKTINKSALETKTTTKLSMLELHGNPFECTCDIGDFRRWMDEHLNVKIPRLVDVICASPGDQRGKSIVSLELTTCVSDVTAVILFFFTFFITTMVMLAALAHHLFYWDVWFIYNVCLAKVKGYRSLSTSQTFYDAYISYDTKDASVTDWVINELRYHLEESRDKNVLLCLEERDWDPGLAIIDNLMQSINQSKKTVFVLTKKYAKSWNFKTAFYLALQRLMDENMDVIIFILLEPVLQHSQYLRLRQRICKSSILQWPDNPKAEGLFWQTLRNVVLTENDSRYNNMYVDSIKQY
How it was run: as §1

[1] = HEK-Blue cells overexpressing human TLR9, stimulated with ODN2006 5 nM, 22 hour incubation, reporter readout
[2] = HEK-Blue cells overexpressing human TLR9, stimulated with ODN2006 5 nM, read-out: TLR 9 IC50

Row | SMILES | IC50 (human TLR9; [1]) [nM] | IC50 (human TLR7) [nM] | IC50 (human TLR8) [nM] | IC50 (human TLR9; [2]) [nM] | IC50 (human TLR9) [nM]
1 | CC(C)N1CCC(N2CCC(c3cc4c(cc3F)nc(-c3ccc(S(C)(=O)=O)cc3)n4C)CC2)CC1 [Example 96, 5-fluoro-6-(1′-isopropyl-[1,4′-bipiperidin]-4-yl)-1-methyl-2-(4-(methylsulfonyl)phenyl)-1H-benzo[d]imidazole] | 73 | 7300 | > 50000 | – | –
2 | CC(C)N1CCC(N2CCC(c3ccc4nc(-c5ccc(S(C)(=O)=O)cc5)n(C)c4c3F)CC2)CC1 [Example 102, 7-fluoro-6-(1′-isopropyl-[1,4′-bipiperidin]-4-yl)-1-methyl-2-(4-(methylsulfonyl)phenyl)-1H-benzo[d]imidazole] | 30 | 9800 | > 50000 | – | –
3 | Cc1cc(C2CCN(C3CCN(C(C)C)CC3)CC2)cc2c1nc(-c1ccc(S(C)(=O)=O)c(F)c1)n2C [Example 122, 2-(3-fluoro-4-(methylsulfonyl)phenyl)-6-(1′-isopropyl-[1,4′-bipiperidin]-4-yl)-1,4-dimethyl-1H-benzo[d]imidazole] | 140 | 8900 | > 25000 | 139 | –
4 | COc1cc(-c2nc3c(C)cc(C4CCN(C5CCN(C(C)C)CC5)CC4)cc3n2C)cn2ncnc12 [Example 125, 6-(6-(1′-isopropyl-[1,4′-bipiperidin]-4-yl)-1,4-dimethyl-1H-benzo[d]imidazol-2-yl)-8-methoxy-[1,2,4]triazolo[1,5-a]pyridine] | 28 | 600 | 2100 | – | –
5 | Cc1cc(-c2ccc(N3CCN(C4CCC4)CC3)cc2)cc2c1nc(-c1ccc(S(C)(=O)=O)cc1)n2C [Example 174, 6-(4-(4-cyclobutylpiperazin-1-yl)phenyl)-1,4-dimethyl-2-(4-(methylsulfonyl)phenyl)-1H-benzo[d]imidazole] | – | > 50000 | > 50000 | 480 | 480
6 | CS(=O)(=O)c1ccc(-c2nc3ccc(C4CCN(C5CCN(C6CC6)CC5)CC4)c(F)c3[nH]2)cc1 [Example 178, 6-(1′-cyclopropyl-[1,4′-bipiperidin]-4-yl)-7-fluoro-2-(4-(methylsulfonyl)phenyl)-1H-benzo[d]imidazole] | – | > 50000 | > 50000 | 238 | 240

More lines, now with the values ahead:

Row | IC50 (human TLR9; [1]) [nM] | IC50 (human TLR7) [nM] | IC50 (human TLR8) [nM] | IC50 (human TLR9; [2]) [nM] | IC50 (human TLR9) [nM] | SMILES
7 | 360 | 38300 | > 50000 | 358 | – | CC(C)N1CCC(N2CCC(c3cc4nc(-c5ccc(S(C)(=O)=O)cc5)n(C)c4cc3F)CC2)CC1 [Example 99, 6-fluoro-5-(1′-isopropyl-[1,4′-bipiperidin]-4-yl)-1-methyl-2-(4-(methylsulfonyl)phenyl)-1H-benzo[d]imidazole]
8 | 95 | 25500 | > 50000 | – | – | CC(C)N1CCC(N2CCC(c3cc(F)c4nc(-c5ccc(S(C)(=O)=O)cc5)n(C)c4c3)CC2)CC1 [Example 105, 4-fluoro-6-(1′-isopropyl-[1,4′-bipiperidin]-4-yl)-1-methyl-2-(4-(methylsulfonyl)phenyl)-1H-benzo[d]imidazole]
9 | 130 | > 50000 | > 50000 | 127 | – | Cc1cc(C2CCN(C3CCN(C(C)C)CC3)CC2)cc2c1nc(-c1ccc(S(N)(=O)=O)cc1)n2C [Example 112, 4-(6-(1′-isopropyl-[1,4′-bipiperidin]-4-yl)-1,4-dimethyl-1H-benzo[d]imidazol-2-yl)benzenesulfonamide]
10 | 120 | 19200 | > 25000 | 116 | – | Cc1cc(C2CCN(C3CC4CCC(C3)N4CC(C)C)CC2)cc2c1nc(-c1ccc(S(C)(=O)=O)cc1)n2C (stereo not shown) [Example 118, 6-(1-(8-isobutyl-8-azabicyclo[3.2.1]octan-3-yl)piperidin-4-yl)-1,4-dimethyl-2-(4-(methylsulfonyl)phenyl)-1H-benzo[d]imidazole]
11 | 19 | 14500 | > 25000 | – | – | Cc1cc(C2CCN(C3CC4CCC(C3)N4CC(C)C)CC2)cc2[nH]c(-c3ccc(S(C)(=O)=O)cc3)nc12 (stereo not shown) [Example 121, 6-(1-(8-isobutyl-8-azabicyclo[3.2.1]octan-3-yl)piperidin-4-yl)-4-methyl-2-(4-(methylsulfonyl)phenyl)-1H-benzo[d]imidazole]
12 | – | > 50000 | > 50000 | 120 | 120 | CC(C)CN1CCC(N2CCC(c3ccc4nc(-c5ccc(S(C)(=O)=O)cc5)[nH]c4c3F)CC2)CC1 [Example 177, 7-fluoro-6-(1′-isobutyl-[1,4′-bipiperidin]-4-yl)-2-(4-(methylsulfonyl)phenyl)-1H-benzo[d]imidazole]
